Results taken from ChEMBL document CHEMBL6121047, “Design, Synthesis, and Evaluation of Selective PDE4 Inhibitors for the Therapy of Pulmonary Injury” (J Med Chem, 2025).
Active and inactive are the calls of the source. No cut-off for these calls is given here.

How the values were obtained:
[1] = Acute toxicity in Sprague-Dawley rat assessed as effect on apparent liver coefficient change at 1 g/Kg, po administered via gavage; assay type: organism-based; conditions: in vivo, 1000 mg/kg
RAW264.7 [2] = test: Anti-inflammatory activity in LPS-induced mouse RAW264.7 cells assessed as inhibition of IL-1 beta secretion level at 10 uM preincubated with compound for 1 hr followed by LPS addition and measured after 24 hrs by ELISA; assay type: functional, cell-based; conditions: time 25.0 hrs
[3] = Metabolic stability in mouse liver microsomes assessed as half life incubated for 4 hrs in presence of NADPH by LC-MS analysis; assay type: ADME, Microsome
[4] = Acute toxicity in Sprague-Dawley rat assessed as pathological changes in liver at 1 g/Kg, po administered via gavage by H and E staining based analysis; assay type: organism-based; conditions: in vivo, 1000 mg/kg
Mus musculus [5] = test: (§1) Anti-inflammatory activity against cigarette-smoke/LPS-induced COPD male C57BL/6 mouse model assessed as reduction in MMP9 level in BALF at 5 mg/kg pretreated with cigarette smoke exposure for 21 weeks with subsequent LPS induction twice on the first and 15th day followed by compound administration every day via gavage for 4 weeks; assay type: functional, organism-based
[6] = AUC (0 to infinity) in Sprague-Dawley rat at 10 mg/kg, po measured upto 24 hrs by LC-MS/MS analysis; assay type: ADME, organism-based; conditions: in vivo
Mus musculus [7] = test: (§2) Anti-inflammatory activity against LPS-induced acute lung injury male BALB/c mouse model assessed as reduction in IL-1beta level in BALF at 8 to 32 mg/kg administered once a day via gavage for 7 days followed by LPS stimulation and measured after 24 hrs; assay type: functional, organism-based; conditions: dose 8-32 mg/kg, time 192.0 hrs
[8] = Apparent volume of distribution in Sprague-Dawley rat at 5 mg/kg, iv measured upto 24 hrs by LC-MS/MS analysis; assay type: ADME, organism-based; conditions: in vivo, read-out: Vz
[9] = Toxicity in female Beagle dog assessed as side effects at 1 to 3 mg/kg, po administered once via gavage and measured within 24 hrs; assay type: organism-based, Canis lupus familiaris; conditions: in vivo, dose 1-3 mg/kg
[10] = Acute toxicity in Sprague-Dawley rat assessed as pathological changes in heart at 1 g/Kg, po administered via gavage by H and E staining based analysis; assay type: organism-based; conditions: in vivo, 1000 mg/kg
[11] = Toxicity in female Beagle dog assessed as drug tolerance at 1 to 3 mg/kg, po administered once via gavage and measured within 24 hrs; assay type: organism-based, Canis lupus familiaris; conditions: in vivo, dose 1-3 mg/kg
[12] = biological target: Voltage-gated inwardly rectifying potassium channel KCNH2 (Homo sapiens, UniProt Q12809); test: Inhibition of hERG expressed in HEK293T cells; assay type: toxicity, cell-based
Sequence of Voltage-gated inwardly rectifying potassium channel KCNH2 (Q12809 whole entry): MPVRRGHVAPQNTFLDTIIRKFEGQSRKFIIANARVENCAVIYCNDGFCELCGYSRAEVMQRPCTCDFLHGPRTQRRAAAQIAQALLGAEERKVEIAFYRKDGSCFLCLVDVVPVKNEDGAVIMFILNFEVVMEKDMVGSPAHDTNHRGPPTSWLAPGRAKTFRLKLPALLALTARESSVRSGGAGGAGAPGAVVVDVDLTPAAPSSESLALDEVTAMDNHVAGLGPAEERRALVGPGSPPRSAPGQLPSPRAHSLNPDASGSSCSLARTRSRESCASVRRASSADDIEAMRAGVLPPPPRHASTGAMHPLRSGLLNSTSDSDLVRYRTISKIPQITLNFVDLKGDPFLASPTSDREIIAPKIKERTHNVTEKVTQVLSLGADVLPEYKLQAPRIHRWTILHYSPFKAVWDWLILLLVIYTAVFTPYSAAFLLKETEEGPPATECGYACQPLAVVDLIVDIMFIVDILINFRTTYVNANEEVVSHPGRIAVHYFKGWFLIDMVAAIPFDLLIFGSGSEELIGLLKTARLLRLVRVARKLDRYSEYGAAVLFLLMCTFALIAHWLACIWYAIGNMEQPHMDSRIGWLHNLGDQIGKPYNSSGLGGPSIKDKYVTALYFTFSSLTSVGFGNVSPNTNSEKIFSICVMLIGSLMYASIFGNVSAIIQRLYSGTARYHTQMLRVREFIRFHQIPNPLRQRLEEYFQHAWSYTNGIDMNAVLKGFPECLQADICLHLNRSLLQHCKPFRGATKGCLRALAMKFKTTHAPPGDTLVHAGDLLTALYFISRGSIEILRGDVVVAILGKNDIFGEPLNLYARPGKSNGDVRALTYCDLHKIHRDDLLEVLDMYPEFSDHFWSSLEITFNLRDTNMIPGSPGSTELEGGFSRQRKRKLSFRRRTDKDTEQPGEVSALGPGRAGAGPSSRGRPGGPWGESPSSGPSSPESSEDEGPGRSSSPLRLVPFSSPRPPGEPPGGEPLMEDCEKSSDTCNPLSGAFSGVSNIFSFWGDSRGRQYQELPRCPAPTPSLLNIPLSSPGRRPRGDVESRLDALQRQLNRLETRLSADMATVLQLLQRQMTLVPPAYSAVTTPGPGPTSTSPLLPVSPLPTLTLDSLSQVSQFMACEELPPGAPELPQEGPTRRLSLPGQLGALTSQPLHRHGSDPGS

Mus musculus [13] = test: as §1, with “reduction in bronchiole thickness at 5” for “reduction in MMP9 level in BALF at 5”, “4 weeks by H and E staining based microscopic analysis” for “4 weeks”; assay type: functional, organism-based
Mus musculus [14] = test: Anti-inflammatory activity against LPS-induced acute lung injury male BALB/c mouse model assessed as reduction in total cell counts in BALF at 8 to 32 mg/kg administered once a day via gavage for 7 days followed by LPS stimulation and measured after 24 hrs; assay type: functional, organism-based; conditions: dose 8-32 mg/kg, time 192.0 hrs
RAW264.7 [15] = test: Anti-inflammatory activity in LPS-induced mouse RAW264.7 cells assessed as decrease in p-p38 MAPK protein level by Western blotting analysis; assay type: functional, cell-based
BEAS-2B = test: Anti-inflammatory activity in LPS-induced human BEAS-2B cells assessed as inhibition of IL-6 secretion level at 10 uM preincubated with compound for 1 hr followed by LPS addition and measured after 24 hrs by ELISA; assay type: functional, cell-based; conditions: time 25.0 hrs
[16] = Metabolic stability in rat liver microsomes assessed as half life incubated for 4 hrs in presence of NADPH by LC-MS analysis; assay type: ADME, Microsome
[17] = Cmax in Sprague-Dawley rat at 10 mg/kg, po measured upto 24 hrs by LC-MS/MS analysis; assay type: ADME, organism-based; conditions: in vivo
Mus musculus [18] = test: Anti-inflammatory activity against cigarette-smoke/LPS-induced COPD male C57BL/6 mouse model assessed as decrease in collagen formation at 5 mg/kg pretreated with cigarette smoke exposure for 21 weeks with subsequent LPS induction twice on the first and 15th day followed by compound administration every day via gavage for 4 weeks by masson staining based microscopic analysis; assay type: functional, organism-based
RAW264.7 [19] = test: Anti-inflammatory activity against cigarette-smoke/LPS-induced mouse RAW264.7 cells assessed as inhibition of phosphorylated p38 MAPK protein expression by Western blotting analysis; assay type: functional, cell-based
RAW264.7 [20] = test: Anti-inflammatory activity in LPS-induced mouse RAW264.7 cells assessed as inhibition of IL-6 secretion level at 10 uM preincubated with compound for 1 hr followed by LPS addition and measured after 24 hrs by ELISA; assay type: functional, cell-based; conditions: time 25.0 hrs
Mus musculus [21] = test: as §2, with “restoration of alveolar cavities” for “reduction”, “lung” for “IL-1beta level in BALF”, “hrs by H and E staining based microscopic analysis” for “hrs”; assay type: functional, organism-based; conditions: dose 8-32 mg/kg, time 192.0 hrs
[22] = AUC (0 to t) in Sprague-Dawley rat at 5 mg/kg, iv measured upto 24 hrs by LC-MS/MS analysis; assay type: ADME, organism-based; conditions: in vivo
[23] = AUC (0 to infinity) in Sprague-Dawley rat at 5 mg/kg, iv measured upto 24 hrs by LC-MS/MS analysis; assay type: ADME, organism-based; conditions: in vivo
[24] = biological target: 3',5'-cyclic-AMP phosphodiesterase 4B (Homo sapiens, UniProt Q07343); test: Inhibition of PDE4B (unknown origin) using FAM-cAMP as substrate preincubated with compound for compound for 15 mins followed by substrate addition and measured after 30 mins by Envision multilabel reader analysis
Sequence of 3',5'-cyclic-AMP phosphodiesterase 4B (Q07343 whole entry): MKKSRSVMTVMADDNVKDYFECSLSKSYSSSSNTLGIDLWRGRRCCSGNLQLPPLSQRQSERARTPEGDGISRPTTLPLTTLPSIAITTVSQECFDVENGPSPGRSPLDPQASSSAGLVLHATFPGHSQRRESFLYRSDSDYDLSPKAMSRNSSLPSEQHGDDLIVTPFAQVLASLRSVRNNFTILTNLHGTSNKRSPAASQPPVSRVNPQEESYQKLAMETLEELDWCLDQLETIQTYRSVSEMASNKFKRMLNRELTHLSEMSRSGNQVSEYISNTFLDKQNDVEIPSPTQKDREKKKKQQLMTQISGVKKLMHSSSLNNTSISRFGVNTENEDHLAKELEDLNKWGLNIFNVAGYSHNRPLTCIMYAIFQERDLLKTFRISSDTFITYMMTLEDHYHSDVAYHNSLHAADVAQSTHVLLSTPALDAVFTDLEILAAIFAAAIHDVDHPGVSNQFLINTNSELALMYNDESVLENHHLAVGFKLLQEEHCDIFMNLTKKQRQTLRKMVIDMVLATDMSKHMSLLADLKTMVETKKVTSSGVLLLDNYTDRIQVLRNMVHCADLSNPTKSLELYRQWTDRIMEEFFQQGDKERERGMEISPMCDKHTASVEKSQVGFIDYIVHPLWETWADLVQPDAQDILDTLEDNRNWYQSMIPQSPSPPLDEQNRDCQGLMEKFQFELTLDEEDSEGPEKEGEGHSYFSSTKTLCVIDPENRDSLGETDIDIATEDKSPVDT

[25] = Acute toxicity in Sprague-Dawley rat assessed as pathological changes in kidney at 1 g/Kg, po administered via gavage by H and E staining based analysis; assay type: organism-based; conditions: in vivo, 1000 mg/kg
RAW264.7 [26] = test: Anti-inflammatory activity in LPS-induced mouse RAW264.7 cells assessed as inhibition of TNF-alpha secretion level at 10 uM preincubated with compound for 1 hr followed by LPS addition and measured after 24 hrs by ELISA; assay type: functional, cell-based; conditions: time 25.0 hrs
[27] = Half life in Sprague-Dawley rat at 5 mg/kg, iv measured upto 24 hrs by LC-MS/MS analysis; assay type: ADME, organism-based; conditions: in vivo

O=C(Nc1nccs1)c1cccc2[nH]c(-c3ccc(OC(F)F)c(OCC4CC4)c3)nc12
Activity [1]: Non-toxic
Activity (RAW264.7 [2]): Active
half-life [3]: 0.67 h
Activity [4]: Non-toxic
Activity (Mus musculus [5]): Active
AUC(0-inf) [6]: 2160 ng·h/mL
Activity (Mus musculus [7]): Active
Vd [8]: 0.606 L/kg
Activity [9]: Non-toxic
Activity [10]: Non-toxic
Activity [11]: Non-toxic
IC50 [12]: > 30000 nM
Activity (Mus musculus [13]): Active
Activity (Mus musculus [14]): Active
Activity (RAW264.7 [15]): Active
Activity (BEAS-2B): Active
half-life [16]: 1.03 h
Cmax [17]: 219 ng/mL
Activity (Mus musculus [18]): Active
Activity (RAW264.7 [19]): Active
Activity (RAW264.7 [20]): Active
Activity (Mus musculus [21]): Active
AUC(0-t) at 24 h [22]: 23200 ng·h/mL
AUC(0-inf) [23]: 23200 ng·h/mL
IC50 [24]: 48.8 nM
Activity [25]: Non-toxic
Activity (RAW264.7 [26]): Active
half-life [27]: 1.97 h
